Like-named read-outs stand apart in the source and are kept apart here.
Columns and labels:
[1] = system: Caco-2 monolayers; format: in vitro ADME, human
Protocol: Caco-2 cells were seeded on 24-well Millicell insert filters with a density of about 1×10^5 cells/well. These cells were cultured for 21 days to reach confluence and differentiation. The integrity of Caco-2 cell monolayers was evaluated by monitoring trans-epithelial electrical resistance (TEER) on an epithelial volt ohmmeter (World Precision Instruments, Sarasota, Fla., USA). The impermeability (gate functions) of epithelial cell monolayers was measured by the fluorescein leakage test (FLT) that provided information on the effects of xenobiotics on the impermeability of epithelial cell monolayers. The differentiation was assessed using the alkaline phosphatase (ALP) assay at 562 nm
After the above measured parameters of the Caco-2 model became stable, transport study was performed from the apical (AP) to the basolateral (BL) side and from BL to AP at 37° C. Following 30 min of equilibration after the addition of 400 μl HBSS (pH 7.4) in AP side and 600 μl in BL side in an atmosphere of 5% CO2, the test solutions containing 100 μM scutellarin or each of 100 μg/ml of five surfactants Cremophor® EL, Cremophor® RH, Labrasol®, Pluronic® F68, and Pluronic® F127; each of 100 μg/ml of three oils Labrafac Lipophile® WL1349, Maisine® 35-1, and Capmul® MCM; each of 100 μg/ml of three co-surfactants Transcutol®, PEG 400, and PEG 2000; and each of 100 μg/ml of four solid carriers β-cyclodextrin, lactose, HPMC K4M®, HPMC K100®. The solutions were all dissolved in DMSO and HBSS and then added to the donor side. The sample of 100 μM scutellarin was used as the scutellarin standard group in comparing the excipients efflux effect. Permeability of scutellarin was measured at 37° C. from the AP to BL direction and BL to AP direction after incubating in 5% CO2 for respectively 30 min, 60 min, and 90 min. […] After 90 min of incubation, solutions from both AP and BL sides were collected. Then the separately collected samples from each well of AP and BL sides were diluted with equal amounts of methanol before they were injected into the LC-MS for quantification of scutellarin. At 30, 60, 90 min of incubation, TEER values were respectively detected before the samples were drawn from the tested wells.
In the Caco-2 permeation analysis, if the calculated efflux ratio of one excipient group was lower than scutellarin standard group, this excipient might possibly be indicated to have the inhibition effect on MRP2.

[2] = biological target: T1, human MRP2 (Homo sapiens, UniProt Q92887); experiment: MRP2 membrane vesicles transport assay with scutellarin as probe (Example 13); format: biochemical
T1 construct: purchased BD Biosciences; host or cells: insect Sf9 cells
T1 sequence (Q92887 whole entry): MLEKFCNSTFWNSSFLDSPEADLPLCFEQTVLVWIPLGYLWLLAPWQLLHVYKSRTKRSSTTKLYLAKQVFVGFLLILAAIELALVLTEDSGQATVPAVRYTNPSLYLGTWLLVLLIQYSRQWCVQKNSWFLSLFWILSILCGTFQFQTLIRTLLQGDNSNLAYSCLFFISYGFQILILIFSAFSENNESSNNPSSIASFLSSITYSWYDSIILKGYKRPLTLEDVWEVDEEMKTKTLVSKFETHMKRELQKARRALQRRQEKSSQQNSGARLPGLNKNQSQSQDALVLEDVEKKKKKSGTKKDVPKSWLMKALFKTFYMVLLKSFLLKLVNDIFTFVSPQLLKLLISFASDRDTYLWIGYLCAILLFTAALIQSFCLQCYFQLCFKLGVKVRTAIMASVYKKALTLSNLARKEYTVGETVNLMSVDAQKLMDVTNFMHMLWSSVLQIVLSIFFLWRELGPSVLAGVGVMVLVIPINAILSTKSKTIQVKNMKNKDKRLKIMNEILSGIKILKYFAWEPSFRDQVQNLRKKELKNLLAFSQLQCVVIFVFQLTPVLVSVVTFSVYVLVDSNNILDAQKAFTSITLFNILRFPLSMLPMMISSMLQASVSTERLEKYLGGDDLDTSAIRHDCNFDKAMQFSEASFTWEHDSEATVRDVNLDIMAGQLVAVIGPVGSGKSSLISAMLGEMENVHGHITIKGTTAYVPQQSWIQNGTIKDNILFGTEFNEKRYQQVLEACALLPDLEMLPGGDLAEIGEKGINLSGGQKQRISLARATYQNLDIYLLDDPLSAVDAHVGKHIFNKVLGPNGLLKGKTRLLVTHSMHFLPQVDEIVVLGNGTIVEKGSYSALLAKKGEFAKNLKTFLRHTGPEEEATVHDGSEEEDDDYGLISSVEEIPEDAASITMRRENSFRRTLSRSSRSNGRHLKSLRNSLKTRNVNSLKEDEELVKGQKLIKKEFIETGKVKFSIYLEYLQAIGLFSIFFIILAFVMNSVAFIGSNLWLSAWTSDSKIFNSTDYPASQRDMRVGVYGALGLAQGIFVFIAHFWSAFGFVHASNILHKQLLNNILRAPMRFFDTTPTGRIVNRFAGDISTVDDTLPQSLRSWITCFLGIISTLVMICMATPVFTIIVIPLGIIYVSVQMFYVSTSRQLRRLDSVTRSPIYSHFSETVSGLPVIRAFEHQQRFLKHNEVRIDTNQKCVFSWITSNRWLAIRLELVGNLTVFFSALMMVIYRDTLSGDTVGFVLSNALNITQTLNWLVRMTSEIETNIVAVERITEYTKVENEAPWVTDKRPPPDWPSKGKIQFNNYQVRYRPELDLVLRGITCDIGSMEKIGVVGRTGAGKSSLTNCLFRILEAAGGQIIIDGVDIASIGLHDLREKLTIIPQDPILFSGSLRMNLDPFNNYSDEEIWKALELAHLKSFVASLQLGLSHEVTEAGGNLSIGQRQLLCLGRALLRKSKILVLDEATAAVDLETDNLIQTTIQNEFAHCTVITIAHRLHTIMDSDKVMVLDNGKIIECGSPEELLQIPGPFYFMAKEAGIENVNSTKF
Protocol: With some changes in BD protocol of MRP2 vesicles assay, a rapid filtration technique of multiscreen HTS vacuum manifold (Millipore) was used in the analysis. […] The mixture was incubated in the buffer (250 mM sucrose, 10 mM MgCl2, 10 mM Tris/HCl, pH 7.4) at 37° C. for […], followed by addition of 15 μl of 25 mM MgATP or blank buffer to each well started the test. The mixture was incubated for 4 min and stopped by transferring the membrane vesicles to a filter plate.

[3] = system: Caco-2 monolayers; format: in vitro ADME; settings: human
[4] = human, Caco-2, 90 min, 100 μg/ml, pH 7.4

Compound | PappAB ([1]; Caco-2) | PappBA ([1]; Caco-2) | other results
CCOCCOCCO [Transcutol ®, diethylene glycol monoethylether] |  |  | PappAB [1, 4]: 2.69 ± 0.35 10^−6 cm · s^−1; PappBA [1, 4]: 5.99 ± 0.52 10^−6 cm · s^−1; sequence of inhibition effects on MRP2 ([2]; within excipient group, p<0.05): PEG 2000>PEG 400>Transcutol®
polyethylene glycol [PEG 400] | 1.46 ± 0.08 10^−6 cm · s^−1 | 1.96 ± 0.05 10^−6 cm · s^−1 | 
Pluronic ® F68 | 2.03 ± 0.35 10^−6 cm · s^−1 | 4.38 ± 0.13 10^−6 cm · s^−1 | Efflux reduction sequence ([1]; Caco-2): Cremophor® RH>Pluronic® F68>Labrasol®>Pluronic® F127
OC[C@H]1O[C@@H](O[C@H]2[C@H](O)[C@@H](O)C(O)O[C@@H]2CO)[C@H](O)[C@@H](O)[C@H]1O (stereo partly shown) [lactose] |  |  | PappAB [1, 4]: 1.44 ± 0.24 10^−6 cm · s^−1; PappBA [1, 4]: 7.90 ± 0.43 10^−6 cm · s^−1
polyethylene glycol [PEG 2000] | 9.91 ± 0.35 10^−6 cm · s^−1 | 12.91 ± 1.60 10^−6 cm · s^−1 | 
O=C(O)[C@H]1O[C@@H](Oc2cc3oc(-c4ccc(O)cc4)cc(=O)c3c(O)c2O)[C@H](O)[C@@H](O)[C@@H]1O [Scutellarin, 4,5,6-trihydroxyflavone-7-glucuronide] |  |  | identification as MRP2 substrate with MRP2 inhibitor MK571 [3]: identified as the substrate for MRP2

The next lines start with results.

PappAB ([1]; Caco-2) | PappBA ([1]; Caco-2) | Compound | other results
1.84 ± 0.09 10^−6 cm · s^−1 | 5.31 ± 0.49 10^−6 cm · s^−1 | Pluronic ® F127 | Efflux reduction sequence ([1]; Caco-2): Cremophor® RH>Pluronic® F68>Labrasol®>Pluronic® F127
4.04 ± 0.33 10^−6 cm · s^−1 | 9.33 ± 0.36 10^−6 cm · s^−1 | OC[C@H]1O[C@@H]2O[C@H]3[C@H](O)[C@@H](O)[C@@H](O[C@H]4[C@H](O)[C@@H](O)[C@@H](O[C@H]5[C@H](O)[C@@H](O)[C@@H](O[C@H]6[C@H](O)[C@@H](O)[C@@H](O[C@H]7[C@H](O)[C@@H](O)[C@@H](O[C@H]8[C@H](O)[C@@H](O)[C@@H](O[C@H]1[C@H](O)[C@H]2O)O[C@@H]8CO)O[C@@H]7CO)O[C@@H]6CO)O[C@@H]5CO)O[C@@H]4CO)O[C@@H]3CO [β-cyclodextrin] | scutellarin concentrations measured compared with scutellarin standard group (FIG. 2) ([2]; higher than standard means MRP2 inhibition): lower quantities of scutellarin than that of the standard group
